Patent US12403137B2, “Compounds and methods of use” (Tango Therapeutics, Inc., priority 2019, dated 2025)

Legend:
[1] = biological target: T1, PRMT5 (Homo sapiens, UniProt O14744); assay: PRMT5 inhibition assay with SAM as cofactor; assay type: biochemical; conditions: against PRMT5 in the presence of SAM as cofactor
T1 construct: purchased Viva (custom protein)
Text: (§1) The Ki values can be calculated from the IC50 values as described in the Examples section. As detailed in the Examples section, for the assay performed in the presence of SAM, IC50=Ki×1.5 (Ki=IC50/1.5). For the assay performed in the presence of MTA, IC50=Ki×13.5 (Ki=IC50/13.5). Column 6 indicates the ratio between the Ki of compounds in the presence of SAM and the Ki of compounds in the presence of MTA

[2] = biological target: T1, PRMT5; assay: PRMT5 inhibition assay with no cofactor; assay type: biochemical; conditions: against PRMT5 with no cofactor; read-out: No Co-factor IC50
[3] = biological target: T1, PRMT5; assay: PRMT5 inhibition assay with MTA as cofactor; assay type: biochemical; conditions: for IC50: against PRMT5 with MTA as cofactor; for SAM/MTA Ratio: ratio of Ki in the presence of SAM to Ki in the presence of MTA, Ki=IC50/1.5 (SAM), Ki=IC50/13.5 (MTA)
Text: as §1

[4] = tested on: HAP1 MTAP-intact cell line; assay: SDMA in-cell western assay, HAP1 MTAP-intact; assay type: cell-based; conditions: Homo sapiens
Procedure, shortened: (§2)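 Symmetric dimethylarginine (SDMA) levels were measured by in-cell western in an isogenic HAP1 pair. One line expresses endogenous MTAP and the other is MTAP-null, with an IC50 derived in each.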

[5] = tested on: HAP1 MTAP-deleted cell line; assay: SDMA in-cell western assay, HAP1 MTAP-deleted; assay type: cell-based; conditions: for IC50: Homo sapiens, HAP1 MTAP-deleted (MTAP-null) cell line; for MTAP Intact/Deleted Ratio: IC50 ratio HAP1 MTAP-intact / HAP1 MTAP-deleted, >=3 fold considered MTAP-selective
Procedure, shortened: as §2

T1 sequence (O14744 whole entry): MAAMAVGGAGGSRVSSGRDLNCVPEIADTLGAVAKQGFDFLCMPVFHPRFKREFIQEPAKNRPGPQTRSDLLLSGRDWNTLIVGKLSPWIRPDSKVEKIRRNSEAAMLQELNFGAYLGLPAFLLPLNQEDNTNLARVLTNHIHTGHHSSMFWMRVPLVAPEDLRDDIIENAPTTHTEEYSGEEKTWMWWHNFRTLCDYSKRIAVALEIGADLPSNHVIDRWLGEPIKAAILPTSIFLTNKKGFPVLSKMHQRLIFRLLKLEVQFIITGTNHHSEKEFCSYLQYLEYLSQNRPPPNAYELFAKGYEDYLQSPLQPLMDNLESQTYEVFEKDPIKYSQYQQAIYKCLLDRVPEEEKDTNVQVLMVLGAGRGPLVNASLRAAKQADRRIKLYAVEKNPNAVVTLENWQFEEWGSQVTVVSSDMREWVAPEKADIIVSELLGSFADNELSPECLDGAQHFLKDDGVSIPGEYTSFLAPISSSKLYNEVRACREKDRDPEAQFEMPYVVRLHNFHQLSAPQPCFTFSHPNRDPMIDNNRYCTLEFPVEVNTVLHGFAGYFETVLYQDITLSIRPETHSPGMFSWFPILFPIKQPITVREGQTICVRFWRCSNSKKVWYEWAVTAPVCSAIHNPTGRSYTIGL
T1 sequence (Q9BQA1 whole entry partner): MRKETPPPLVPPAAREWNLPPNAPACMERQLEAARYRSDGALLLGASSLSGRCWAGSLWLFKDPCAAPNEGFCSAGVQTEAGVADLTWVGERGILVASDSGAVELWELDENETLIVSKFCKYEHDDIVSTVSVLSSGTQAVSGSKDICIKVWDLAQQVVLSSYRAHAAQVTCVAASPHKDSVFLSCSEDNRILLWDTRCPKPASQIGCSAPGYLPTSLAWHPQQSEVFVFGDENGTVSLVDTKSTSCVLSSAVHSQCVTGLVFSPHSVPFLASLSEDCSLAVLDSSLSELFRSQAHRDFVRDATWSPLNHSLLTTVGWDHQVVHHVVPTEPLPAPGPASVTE

`CC(=O)N1CC(Nc2cc(C(=O)NC[C@@H](O)[C@@H]3Cc4ccc(OCc5ocnc5C)cc4CN3)cc(N3CCCCC3)n2)C1` [Compound 45, 2-[(1-acetylazetidin-3-yl)amino]-N-[(2R)-2-hydroxy-2-[(3S)-7-[(4-methyloxazol-5-yl)methoxy]-1,2,3,4-tetrahydroisoquinolin-3-yl]ethyl]-6-(1-piperidyl)pyridine-4-carboxamide] gave an IC50 [1] of 50 to 500 nM, an IC50 [2] of 50 to 500 nM and an IC50 [3] of less than 50 nM. The “SAM/MTA Ratio” value [3] was “A (a Ki ratio greater than or equal to 10 fold between the Ki in the presence of SAM and the Ki in the presence of MTA)”, the IC50 [4] was no less than 10000 nM and the IC50 [5] was less than 1000 nM. For the same compound, the “MTAP Intact/Deleted Ratio” value [5] was “A* (an IC50 ratio greater than or equal to 10 fold between the IC50 in the HAP1 MTAP-intact cell line and the HAP1 MTAP-deleted cell line)”.
With `Cc1ncoc1COc1ccc2c(c1)CN[C@H]([C@H](O)CNC(=O)c1ccnc(NC3CC4(CCC4)C3)c1)C2` [Compound 46, N-[(2R)-2-hydroxy-2-[(3S)-7-[(4-methyloxazol-5-yl)methoxy]-1,2,3,4-tetrahydroisoquinolin-3-yl]ethyl]-2-(spiro[3.3]heptan-2-ylamino)pyridine-4-carboxamide] the IC50 [1] was 50 to 500 nM, the IC50 [2] was 50 to 500 nM and the IC50 [3] was less than 50 nM. For the same compound, the “SAM/MTA Ratio” value [3] was “A (a Ki ratio greater than or equal to 10 fold between the Ki in the presence of SAM and the Ki in the presence of MTA)”, the IC50 [4] was less than 1000 nM and the IC50 [5] was less than 1000 nM. For the same compound, the “MTAP Intact/Deleted Ratio” value [5] was “B* (an IC50 ratio greater than or equal to 3 fold but lower than 10 fold between the IC50 in the HAP1 MTAP-intact cell line and the HAP1 MTAP-deleted cell line)”.
`CC(=O)N1CC(Nc2cc(C(=O)NC[C@@H](O)[C@@H]3Cc4ccc(OCc5ocnc5C)cc4CN3)nc(N3CCN(C(C)C)CC3)n2)C1` [Compound 47, 6-[(1-acetylazetidin-3-yl)amino]-N-[(2R)-2-hydroxy-2-[(3S)-7-[(4-methyloxazol-5-yl)methoxy]-1,2,3,4-tetrahydroisoquinolin-3-yl]ethyl]-2-(4-isopropylpiperazin-1-yl)pyrimidine-4-carboxamide] showed an IC50 [1] of 50 to 500 nM, an IC50 [2] of 50 to 500 nM and an IC50 [3] of less than 50 nM. For the same compound, the “SAM/MTA Ratio” value [3] was “A (a Ki ratio greater than or equal to 10 fold between the Ki in the presence of SAM and the Ki in the presence of MTA)”, the IC50 [4] was no less than 10000 nM and the IC50 [5] was 1000 to 10000 nM. The “MTAP Intact/Deleted Ratio” value [5] was “C* (an IC50 ratio of less than 3 fold between the IC50 in the HAP1 MTAP-intact cell line and the HAP1 MTAP-deleted cell line)”.
`Cc1ncoc1COc1ccc2c(c1)CN[C@H]([C@H](O)CNC(=O)c1cc(NC3CCC3)nc(N3CCCCC3)n1)C2` [Compound 49, 6-(cyclobutylamino)-N-[(2R)-2-hydroxy-2-[(3S)-7-[(4-methyloxazol-5-yl)methoxy]-1,2,3,4-tetrahydroisoquinolin-3-yl]ethyl]-2-(1-piperidyl)pyrimidine-4-carboxamide] showed an IC50 [1] of 50 to 500 nM, an IC50 [2] of 50 to 500 nM and an IC50 [3] of less than 50 nM. For the same compound, the “SAM/MTA Ratio” value [3] was “A (a Ki ratio greater than or equal to 10 fold between the Ki in the presence of SAM and the Ki in the presence of MTA)”, the IC50 [4] was 1000 to 10000 nM and the IC50 [5] was less than 1000 nM. The “MTAP Intact/Deleted Ratio” value [5] was “A* (an IC50 ratio greater than or equal to 10 fold between the IC50 in the HAP1 MTAP-intact cell line and the HAP1 MTAP-deleted cell line)”.
With `CC(=O)N1CCC(Nc2cc(C(=O)NC[C@@H](O)[C@@H]3Cc4ccc(OCc5ocnc5C)cc4CN3)nc(N3CCCCC3)n2)CC1` [Compound 50, 6-[(1-acetyl-4-piperidyl)amino]-N-[(2R)-2-hydroxy-2-[(3S)-7-[(4-methyloxazol-5-yl)methoxy]-1,2,3,4-tetrahydroisoquinolin-3-yl]ethyl]-2-(1-piperidyl)pyrimidine-4-carboxamide] the IC50 [1] was 50 to 500 nM, the IC50 [2] was 50 to 500 nM and the IC50 [3] was less than 50 nM. For the same compound, the “SAM/MTA Ratio” value [3] was “A (a Ki ratio greater than or equal to 10 fold between the Ki in the presence of SAM and the Ki in the presence of MTA)”, the IC50 [4] was less than 1000 nM and the IC50 [5] was less than 1000 nM. For the same compound, the “MTAP Intact/Deleted Ratio” value [5] was “A* (an IC50 ratio greater than or equal to 10 fold between the IC50 in the HAP1 MTAP-intact cell line and the HAP1 MTAP-deleted cell line)”.
`CC(=O)N1CC(Nc2cc(C(=O)NC[C@@H](O)[C@@H]3Cc4ccc(OCc5ocnc5C)cc4CN3)nc(N3CC4CC(C4)C3)n2)C1` [Compound 51, 6-[(1-acetylazetidin-3-yl)amino]-2-(3-azabicyclo[3.1.1]heptan-3-yl)-N-[(2R)-2-hydroxy-2-[(3S)-7-[(4-methyloxazol-5-yl)methoxy]-1,2,3,4-tetrahydroisoquinolin-3-yl]ethyl]pyrimidine-4-carboxamide] was tested, and the IC50 [1] was 50 to 500 nM, the IC50 [2] was 50 to 500 nM and the IC50 [3] was less than 50 nM. The “SAM/MTA Ratio” value [3] was “A (a Ki ratio greater than or equal to 10 fold between the Ki in the presence of SAM and the Ki in the presence of MTA)”, the IC50 [4] was 1000 to 10000 nM and the IC50 [5] was less than 1000 nM. For the same compound, the “MTAP Intact/Deleted Ratio” value [5] was “A* (an IC50 ratio greater than or equal to 10 fold between the IC50 in the HAP1 MTAP-intact cell line and the HAP1 MTAP-deleted cell line)”.
`Cc1ncoc1COc1ccc2c(c1)CN[C@H]([C@H](O)CNC(=O)c1cc(NC3CCC3)nc(N3CCN(C)CC3)c1)C2` [Compound 52, 2-(cyclobutylamino)-N-[(2R)-2-hydroxy-2-[(3S)-7-[(4-methyloxazol-5-yl)methoxy]-1,2,3,4-tetrahydroisoquinolin-3-yl]ethyl]-6-(4-methylpiperazin-1-yl)pyridine-4-carboxamide] was tested, and the IC50 [1] was 50 to 500 nM, the IC50 [2] was 50 to 500 nM and the IC50 [3] was less than 50 nM. For the same compound, the “SAM/MTA Ratio” value [3] was “A (a Ki ratio greater than or equal to 10 fold between the Ki in the presence of SAM and the Ki in the presence of MTA)”, the IC50 [4] was less than 1000 nM and the IC50 [5] was less than 1000 nM. The “MTAP Intact/Deleted Ratio” value [5] was “A* (an IC50 ratio greater than or equal to 10 fold between the IC50 in the HAP1 MTAP-intact cell line and the HAP1 MTAP-deleted cell line)”.
Compound `CC(=O)N1CC(Nc2cc(C(=O)NC[C@@H](O)[C@@H]3Cc4ccc(OCc5ocnc5C)cc4CN3)nc(N3CC4CCC3C4)n2)C1` (stereo partly drawn) [Compound 53, 6-[(1-acetylazetidin-3-yl)amino]-2-(3-azabicyclo[2.2.1]heptan-3-yl)-N-[(2R)-2-hydroxy-2-[(3S)-7-[(4-methyloxazol-5-yl)methoxy]-1,2,3,4-tetrahydroisoquinolin-3-yl]ethyl]pyrimidine-4-carboxamide] has an IC50 [1] of 50 to 500 nM, an IC50 [2] of 50 to 500 nM and an IC50 [3] of less than 50 nM. The “SAM/MTA Ratio” value [3] was “A (a Ki ratio greater than or equal to 10 fold between the Ki in the presence of SAM and the Ki in the presence of MTA)”, the IC50 [4] was 1000 to 10000 nM and the IC50 [5] was less than 1000 nM. The “MTAP Intact/Deleted Ratio” value [5] was “A* (an IC50 ratio greater than or equal to 10 fold between the IC50 in the HAP1 MTAP-intact cell line and the HAP1 MTAP-deleted cell line)”.
For `CC(=O)N1CCC(Nc2cc(C(=O)NC[C@@H](O)[C@@H]3Cc4ccc(OCc5ocnc5C)cc4CN3)cc(N3CCN(C)CC3)n2)CC1` [Compound 54, 2-[(1-acetyl-4-piperidyl)amino]-N-[(2R)-2-hydroxy-2-[(3S)-7-[(4-methyloxazol-5-yl)methoxy]-1,2,3,4-tetrahydroisoquinolin-3-yl]ethyl]-6-(4-methylpiperazin-1-yl)pyridine-4-carboxamide], the IC50 [1] was 50 to 500 nM, the IC50 [2] was 50 to 500 nM and the IC50 [3] was less than 50 nM. The “SAM/MTA Ratio” value [3] was “A (a Ki ratio greater than or equal to 10 fold between the Ki in the presence of SAM and the Ki in the presence of MTA)”, the IC50 [4] was no less than 10000 nM and the IC50 [5] was 1000 to 10000 nM. For the same compound, the “MTAP Intact/Deleted Ratio” value [5] was “C* (an IC50 ratio of less than 3 fold between the IC50 in the HAP1 MTAP-intact cell line and the HAP1 MTAP-deleted cell line)”.
`CCN1CCN(c2cc(C(=O)NC[C@@H](O)[C@@H]3Cc4ccc(OCc5ocnc5C)cc4CN3)cc(NC3CCC3)n2)CC1` [Compound 55, 2-(cyclobutylamino)-6-(4-ethylpiperazin-1-yl)-N-[(2R)-2-hydroxy-2-[(3S)-7-[(4-methyloxazol-5-yl)methoxy]-1,2,3,4-tetrahydroisoquinolin-3-yl]ethyl]pyridine-4-carboxamide] was tested, and the IC50 [1] was 50 to 500 nM, the IC50 [2] was 50 to 500 nM and the IC50 [3] was less than 50 nM. For the same compound, the “SAM/MTA Ratio” value [3] was “A (a Ki ratio greater than or equal to 10 fold between the Ki in the presence of SAM and the Ki in the presence of MTA)”, the IC50 [4] was less than 1000 nM and the IC50 [5] was less than 1000 nM. The “MTAP Intact/Deleted Ratio” value [5] was “B* (an IC50 ratio greater than or equal to 3 fold but lower than 10 fold between the IC50 in the HAP1 MTAP-intact cell line and the HAP1 MTAP-deleted cell line)”.
`CC(=O)N1CC(Nc2cc(C(=O)NC[C@@H](O)[C@@H]3Cc4ccc(OCc5ocnc5C)cc4CN3)nc(N3CC4CCC(C4)C3)n2)C1` [Compound 56, 6-[(1-acetylazetidin-3-yl)amino]-2-(3-azabicyclo[3.2.1]octan-3-yl)-N-[(2R)-2-hydroxy-2-[(3S)-7-[(4-methyloxazol-5-yl)methoxy]-1,2,3,4-tetrahydroisoquinolin-3-yl]ethyl]pyrimidine-4-carboxamide] showed an IC50 [1] of 50 to 500 nM, an IC50 [2] of 50 to 500 nM and an IC50 [3] of less than 50 nM. For the same compound, the “SAM/MTA Ratio” value [3] was “A (a Ki ratio greater than or equal to 10 fold between the Ki in the presence of SAM and the Ki in the presence of MTA)”, the IC50 [4] was 1000 to 10000 nM and the IC50 [5] was less than 1000 nM. The “MTAP Intact/Deleted Ratio” value [5] was “A* (an IC50 ratio greater than or equal to 10 fold between the IC50 in the HAP1 MTAP-intact cell line and the HAP1 MTAP-deleted cell line)”.
